# Source: patent US12091409B2, “Ether linked triazoles as NRF2 activators” (ASTEX THERAPEUTICS LIMITED, priority 2016, dated 2024)
# Structures can show the parent of a compound that is named as a salt.
# System: NQO1 specific enzyme activity in BEAS-2B cells (marker for NRF2 activation)
# Experiment: BEAS-2B NQO1 MTT Assay
# Format: cell-based
# Details: Homo sapiens, BEAS-2B, 48 h, NQO1 specific activity induction, 48 hours with compound
# Outline: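 Cells plated overnight at 37° C., 5% CO2, then exposed to compound for 48 hours. NQO1 activity read in crude lysates with MTT cocktail as kinetic absorbance at 570 nm over 30 minutes. pEC50 from Delta OD/min versus log concentration with a 3-parameter fit.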
row,SMILES,EC50
1,"CCn1cc(COC(c2ccc(C)c(CN(Cc3ccccc3)S(=O)(=O)c3cccc(C(=O)O)c3)c2)C(C)(C)C(=O)O)nn1 (stereo not shown) [Example 95, 3-(N-benzyl-N-(5-(2-carboxy-1-((1-ethyl-1H-1,2,3-triazol-4-yl)methoxy)-2-methylpropyl)-2-methylbenzyl)sulfamoyl)benzoic acid]",100 to 1000 nM
2,"CCn1cc(COC(c2ccc(C)c(CN(C3CCCCC3)S(=O)(=O)c3cccc(OC)c3)c2)C(C)(C)C(=O)O)nn1 (stereo not shown) [Example 96, 3-(3-(((N-cyclohexyl-3-methoxyphenyl)sulfamido)methyl)-4-methylphenyl)-3-((1-ethyl-1H-1,2,3-triazol-4-yl)methoxy)-2,2-dimethylpropanoic acid]",100 to 1000 nM
3,"CCn1cc(COC(c2ccc(C)c(CN(C3CCCCC3)S(=O)(=O)c3ccc(OC)cc3)c2)C(C)(C)C(=O)O)nn1 (stereo not shown) [Example 97, 3-(3-(((N-cyclohexyl-4-methoxyphenyl)sulfonamido)methyl)-4-methylphenyl)-3-((1-ethyl-1H-1,2,3-triazol-4-yl)methoxy)-2,2-dimethylpropanoic acid]",100 to 1000 nM
4,"CCn1cc(COC(c2ccc(C)c(CN(C3CCCCC3)S(=O)(=O)c3ccccc3)c2)C(C)(C)C(=O)O)nn1 (stereo not shown) [Example 98, 3-(3-((N-cyclohexylphenylsulfonamido)methyl)-4-methylphenyl)-3-((1-ethyl-1H-1,2,3-triazol-4-yl)methoxy)-2,2-dimethylpropanoic acid]",10 to 100 nM
5,"CCn1cc(COC(c2ccc(C)c(CN(Cc3ccccc3)S(=O)(=O)c3ccccc3)c2)C(C)(C)C(=O)O)nn1 (stereo not shown) [Example 99, 3-(3-((N-benzylphenylsulfonamido)methyl)-4-methylphenyl)-3-((1-ethyl-1H-1,2,3-triazol-4-yl)methoxy)-2,2-dimethylpropanoic acid]",10 to 100 nM
6,"Cc1ccc(C(OCc2cn(CC3CCN(C(N)=O)CC3)nn2)C(C)(C)C(=O)O)cc1CN1C[C@@H](C)Oc2ccccc2S1(=O)=O (stereo partly drawn) [Example 100, 3-((1-((1-Carbamoylpiperidin-4-yl)methyl)-1H-1,2,3-triazol-4-yl)methoxy)-2,2-dimethyl-3-(4-methyl-3-(((R)-4-methyl-1,1-dioxido-3,4-dihydro-2H-benzo[b][1,4,5]oxathiazepin-2-yl)methyl)phenyl)propanoic acid]",100 to 1000 nM
7,"Cc1ccc(C(OCc2c[nH]nn2)C(C)(C)C(=O)O)cc1CN1C[C@@H](C)Oc2ccccc2S1(=O)=O (stereo partly drawn) [Example 101, 3-((1H-1,2,3-triazol-4-yl)methoxy)-2,2-dimethyl-3-(4-methyl-3-(((R)-4-methyl-1,1-dioxido-3,4-dihydro-2H-benzo[b][1,4,5]oxathiazepin-2-yl)methyl)phenyl)propanoic acid]",10 to 100 nM
8,"Cc1ccc(C(OCc2cn(C3COC3)nn2)C(C)(C)C(=O)O)cc1CN1C[C@@H](C)Oc2ccccc2S1(=O)=O (stereo partly drawn) [Example 104, 2,2-Dimethyl-3-(4-methyl-3-(((R)-4-methyl-1,1-dioxido-3,4-dihydro-2H-benzo[b][1,4,5]oxathiazepin-2-yl)methyl)phenyl)-3-((1-(oxetan-3-yl)-1H-1,2,3-triazol-4-yl)methoxy)propanoic acid]",10 to 100 nM
9,CC[C@@H]1CN(Cc2cc([C@H](OCc3cn(C4COC4)nn3)C(C)(C)C(=O)O)ccc2C)S(=O)(=O)c2ccccc2O1 [Example 105],1 to 10 nM
10,"CC[C@@H]1CN(Cc2cc(C(OCc3cn(CCOC)nn3)C(C)(C)C(=O)O)ccc2C)S(=O)(=O)c2ccccc2O1 (stereo partly drawn) [Example 106, 3-(3-(((R)-4-ethyl-1,1-dioxido-3,4-dihydro-2H-benzo[b][1,4,5]oxathiazepin-2-yl)methyl)-4-methylphenyl)-3-((1-(2-methoxyethyl)-1H-1,2,3-triazol-4-yl)methoxy)-2,2-dimethylpropanoic acid]",< 1 nM
11,"CC[C@@H]1CN(Cc2cc([C@H](OCc3cn(CCOCCOC)nn3)C(C)(C)C(=O)O)ccc2C)S(=O)(=O)c2ccccc2O1 [Example 107, 3-(3-(((R)-4-ethyl-1,1-dioxido-3,4-dihydro-2H-benzo[b][1,4,5]oxathiazepin-2-yl)methyl)-4-methylphenyl)-3-((1-(2-(2-methoxyethoxy)ethyl)-1H-1,2,3-triazol-4-yl)methoxy)-2,2-dimethylpropanoic acid]",< 1 nM
12,"CC[C@@H]1CN(Cc2cc([C@@H](OCc3cn(C)nn3)C(C)(C)C(=O)O)ccc2C)Cc2ncccc2O1 [Example 108, (R)-3-(3-(((R)-2-Ethyl-2,3-dihydropyrido[2,3-f][1,4]oxazepin-4(5H)-yl)methyl)-4-methylphenyl)-2,2-dimethyl-3-((1-methyl-1H-1,2,3-triazol-4-yl)methoxy)propanoic acid Hydrochloride]",10 to 100 nM
13,"Cc1ccc([C@@H](OCc2cn(C)nn2)C(C)(C)C(=O)O)cc1CN1Cc2ncccc2O[C@H](C(C)C)C1 [Example 109, (R)-3-(3-(((R)-2-isopropyl-2,3-dihydropyrido[2,3-b][1,4]-oxazepin-4(5H)-yl)methyl)-4-methylphenyl)-2,2-dimethyl-3-((1-methyl-1H-1,2,3-triazol-4-yl)methoxy)propanoic acid]",10 to 100 nM
14,"CC[C@@H]1CN(Cc2cc([C@@H](OCc3cn(C)nn3)C(C)(C)C(=O)O)ccc2C)Cc2nc(C)ccc2O1 [Example 110, (R)-3-(3-(((R)-2-Ethyl-7-methyl-2,3-dihydropyrido[2,3-f][1,4]oxazepin-4(5H)-yl)methyl)-4-methylphenyl)-2,2-dimethyl-3-((1-methyl-1H-1,2,3-triazol-4-yl)methoxy)propanoic acid trifluoroacetate]",1 to 10 nM
15,"CC[C@@H]1CN(Cc2cc([C@H](OCc3cn(C)nn3)C(C)(C)C(=O)O)ccc2C)Cc2ncccc2O1 [Example 111, (S)-methyl-3-(3-(((R)-2-ethyl-2,3-dihydropyrido[2,3-f][1,4]oxazepin-4(5H)-yl)methyl)-4-methyl-phenyl)-2,2-dimethyl-3-((1-methyl-1H-1,2,3-triazol-4-yl)-methoxy)-propanoic acid]",100 to 1000 nM
16,"Cc1ccc([C@H](OCc2cn(C)nn2)C(C)(C)C(=O)O)cc1CN1Cc2ncccc2O[C@H](C(C)C)C1 [Example 112, (S)-3-(3-(((R)-2-isopropyl-2,3-dihydropyrido[2,3-f][1,4]oxazepin-4(5H)-yl)methyl)-4-methylphenyl)-2,2-dimethyl-3-((1-methyl-1H-1,2,3-triazol-4-yl)-methoxy)propanoic acid, trifluoroacetate]",10 to 100 nM
17,"CC[C@@H]1CN(Cc2cc([C@@H](OCc3cn(CC)nn3)C(C)(C)C(=O)O)ccc2C)Cc2ncccc2O1 [Example 113, (R)-3-((1-Ethyl-1H-1,2,3-triazol-4-yl)methoxy)-3-(3-(((R)-2-ethyl-2,3-dihydropyrido[2,3-f][1,4]oxazepin-4(5H)-yl)methyl)-4-methylphenyl)-2,2-dimethylpropanoic Acid, Trifluoroacetate]",10 to 100 nM
18,"CC[C@@H]1CN(Cc2cc([C@H](OCc3cn(CC)nn3)C(C)(C)C(=O)O)ccc2C)Cc2ncccc2O1 [Example 114, (S)-methyl 3-((1-ethyl-1H-1,2,3-triazol-4-yl)-methoxxy)-3-(3-(((R)-2-ethyl-2,3-dihydropyrido[2,3-f][1,4]oxazepin-4(5H)-yl)methyl)-4-methylphenyl)-2,2-dimethyl-propanoic acid, trifluoroacetate]",100 to 1000 nM
19,"CC[C@H]1Cc2cccnc2CN(Cc2cc([C@@H](OCc3cn(CC)nn3)C(C)(C)C(=O)O)ccc2C)C1 [Example 115, (R)-methyl 3-((1-ethyl-1H-1,2,3-triazol-4-yl)-methoxy)-3-(3-((S)-6-ethyl-6,7-dihydro-5H-pyrido[2,3-c]azepin-8(9H)-yl)methyl)-4-methylphenyl)-2,2-dimethyl-propanoic acid, trifluoroacetate]",1 to 10 nM
20,"CC[C@H]1Cc2cccnc2CN(Cc2cc([C@H](OCc3cn(CC)nn3)C(C)(C)C(=O)O)ccc2C)C1 [Example 116, (S)-methyl 3-((1-ethyl-1H-1,2,3-triazol-4-yl)-methoxy)-3-(3-(((S)-6-ethyl-6,7-dihydro-5H-pyrido[2,3-c]azepin-8(9H)-yl)methyl)-4-methylphenyl)-2,2-dimethyl-propanoic acid, trifluoroacetate]",10 to 100 nM
21,"CC[C@@H]1CN(Cc2cc([C@@H](OCc3cn(CC)nn3)C(C)(C)C(=O)O)ccc2C)Cc2ccccc2O1 [Example 117, (R)-methyl 3-((1-ethyl-1H-1,2,3-triazol-4-yl)-methoxy)-3-(3-(((R)-2-ethyl-2,3-dihydro-benzo[f][1,4]oxazepin-4(5H)-yl)methyl)-4-methylphenyl)-2,2-dimethyl-propanoic acid, trifluoroacetate]",10 to 100 nM
22,CC[C@@H]1CN(Cc2cc([C@H](OCc3cn(CC)nn3)C(C)(C)C(=O)O)ccc2C)Cc2ccccc2O1 [Example 118],1000 to 10000 nM
23,"CC[C@H]1Cc2ccccc2S(=O)(=O)N(Cc2cc([C@@H](OCc3cn(C)nn3)C(C)(C)C(=O)O)ccc2C)C1 [Example 119, (R)-3-(3-(((S)-4-Ethyl-1,1-dioxido-4,5-dihydrobenzo[f][1,2]thiazepin-2(3H)-yl)methyl)-4-methylphenyl)-2,2-dimethyl-3-((1-methyl-1H-1,2,3-triazol-4-yl)methoxy)propanoic acid]",< 1 nM
24,"CC[C@@H]1CN(Cc2cc([C@@H](OCc3cn(C)nn3)C(C)(C)C(=O)O)ccc2C)S(=O)(=O)c2ccccc2O1 [Example 120, (R)-3-(3-(((R)-4-Ethyl-1,1-dioxido-3,4-dihydro-2H-benzo[b][1,4,5]oxathiazepin-2-yl)methyl)-4-methylphenyl)-2,2-dimethyl-3-((1-methyl-1H-1,2,3-triazol-4-yl)methoxy)propanoic acid]",< 1 nM
25,"CC[C@@H]1CN(Cc2cc([C@@H](OCc3cn(C)nn3)C(C)(C)C(=O)O)ccc2C)S(=O)(=O)c2ncccc2O1 [Example 121, (R)-3-(3-(((R)-4-Ethyl-1,1-dioxido-3,4-dihydro-2H-pyrido[3,2-b][1,4,5]oxathiazepin-2-yl)methyl)-4-methylphenyl)-2,2-dimethyl-3-((1-methyl-1H-1,2,3-triazol-4-yl)methoxy)propanoic acid]",1 to 10 nM
